Tests used:
glucocorticoid receptor = target: T1, glucocorticoid receptor (Homo sapiens, UniProt P04150); experiment: Glucocorticoid Receptor Binding Assay (Method 1), [3H]-dexamethasone competition, A549 cell extract; conditions: 1.86 nM [3H]-dexamethasone, read-out: GR Ki (nM) Method 1
T1 construct: containing 50-200 ug of A549 cell extract and 1.86 nM; host or cells: A549 human lung epithelial cells
T1 sequence (P04150 1-777): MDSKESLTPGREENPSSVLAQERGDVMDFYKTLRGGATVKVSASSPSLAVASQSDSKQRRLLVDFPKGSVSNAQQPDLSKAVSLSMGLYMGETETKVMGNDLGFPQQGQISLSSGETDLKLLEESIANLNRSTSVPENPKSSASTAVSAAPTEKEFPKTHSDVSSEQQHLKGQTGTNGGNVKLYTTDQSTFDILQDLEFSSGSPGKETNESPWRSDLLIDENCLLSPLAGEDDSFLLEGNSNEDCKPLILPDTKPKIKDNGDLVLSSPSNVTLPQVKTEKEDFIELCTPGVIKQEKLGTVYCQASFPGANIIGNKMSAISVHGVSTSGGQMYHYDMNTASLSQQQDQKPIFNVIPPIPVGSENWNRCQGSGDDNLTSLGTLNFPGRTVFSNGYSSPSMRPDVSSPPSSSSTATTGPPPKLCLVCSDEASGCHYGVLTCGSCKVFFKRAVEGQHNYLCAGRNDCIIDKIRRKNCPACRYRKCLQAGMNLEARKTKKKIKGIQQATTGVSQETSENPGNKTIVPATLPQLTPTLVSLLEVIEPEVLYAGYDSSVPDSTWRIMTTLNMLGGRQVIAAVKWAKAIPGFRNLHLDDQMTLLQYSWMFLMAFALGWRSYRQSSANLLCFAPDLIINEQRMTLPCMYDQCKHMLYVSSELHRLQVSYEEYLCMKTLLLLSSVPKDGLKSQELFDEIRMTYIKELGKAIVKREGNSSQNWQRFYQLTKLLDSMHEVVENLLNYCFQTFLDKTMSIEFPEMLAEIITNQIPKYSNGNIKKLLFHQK
Method: Glucocorticoid Receptor Binding Assay (Method 1):
A549 human lung epithelial cells (ATCC) are grown at a scale where gram quantity cell pellets are obtained. Harvested cell pellets are washed twice in cold phosphate buffered saline, centrifuged, and resuspended in cold assay binding buffer. The assay binding buffer consists of 10% glycerol, 50 mM Tris-HCl (pH7.2), 75 mM sodium chloride, 1.5 mM magnesium chloride, 1.5 mM EDTA, and 10 mM sodium molybdate. Cell suspensions were lysed via sonication, centrifuged, and the “extract” supernatant is snap frozen and stored at −80 C until needed.
Incubations are carried out at 4 degrees Celsius for 16 hours. After incubation, 70 ul of 3× dextran-coated charcoal solution is added to each reaction, mixed, and incubated for 8 minutes at RT. 3×-dextran-coated charcoal solution consists of 250 ml assay binding buffer, 3.75 g Norit A charcoal (Sigma), and 1.25 g dextran T-70 (Amersham). Charcoal/unbound radioligand complexes are removed by centrifugation of the plate and 140 ul of supernatant from each well is transferred to another 96 well Optiplate (Packard Instruments). 200 ul of Microscint-20 scinillant (Packard Instruments) is added to each well and amount of receptor bound radioligand is determined using Packard Instruments TopCount instrument.

human MR = target: T2, human MR (Homo sapiens, UniProt P08235); experiment: Mineralocorticoid Receptor Binding Assay (Method 1), [3H]-aldosterone competition; conditions: 0.5 nM [3H]-aldosterone, human MR expressed in Sf9 cells
T2 construct: The full length human MR gene is cloned from a human kidney or human brain cDNA library; inferred from own knowledge of the pAcHLT vector (N); made in house; host or cells: Sf9 insect cells (baculovirus)
T2 sequence (P08235 1-984): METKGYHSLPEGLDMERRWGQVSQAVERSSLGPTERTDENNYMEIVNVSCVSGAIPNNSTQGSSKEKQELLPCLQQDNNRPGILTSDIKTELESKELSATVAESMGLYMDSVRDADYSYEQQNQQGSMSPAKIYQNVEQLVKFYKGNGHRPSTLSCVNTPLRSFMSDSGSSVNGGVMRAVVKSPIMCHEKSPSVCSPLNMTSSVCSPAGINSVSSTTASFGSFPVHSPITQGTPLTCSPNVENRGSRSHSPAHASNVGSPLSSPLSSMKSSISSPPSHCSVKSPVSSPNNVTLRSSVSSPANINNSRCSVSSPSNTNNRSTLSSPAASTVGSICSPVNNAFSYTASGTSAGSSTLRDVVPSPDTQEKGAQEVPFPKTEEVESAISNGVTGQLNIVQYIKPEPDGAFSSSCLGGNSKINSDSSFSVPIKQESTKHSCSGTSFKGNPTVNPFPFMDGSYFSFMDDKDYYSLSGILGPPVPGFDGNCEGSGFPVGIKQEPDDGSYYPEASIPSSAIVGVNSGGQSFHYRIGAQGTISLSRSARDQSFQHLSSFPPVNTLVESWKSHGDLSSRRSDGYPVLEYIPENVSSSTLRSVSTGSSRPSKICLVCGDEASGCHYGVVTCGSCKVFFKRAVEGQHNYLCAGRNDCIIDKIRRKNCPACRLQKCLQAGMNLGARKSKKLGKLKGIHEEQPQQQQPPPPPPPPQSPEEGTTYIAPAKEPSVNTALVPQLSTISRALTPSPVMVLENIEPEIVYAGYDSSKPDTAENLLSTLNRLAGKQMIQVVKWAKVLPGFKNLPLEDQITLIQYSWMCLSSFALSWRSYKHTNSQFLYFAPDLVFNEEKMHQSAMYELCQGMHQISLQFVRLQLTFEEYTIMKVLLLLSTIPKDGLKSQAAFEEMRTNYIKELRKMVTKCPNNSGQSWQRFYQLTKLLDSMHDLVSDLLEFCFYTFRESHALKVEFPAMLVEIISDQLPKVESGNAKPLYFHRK
Method: Mineralocorticoid Receptor Binding Assay (Method 1):
The full length human MR gene is cloned from a human kidney or human brain cDNA library. […] The PCR reaction is performed in a final volume of 50 μl containing about 1 μl of a 50× stock solution of polymerase; about 1 μl of a 50× stock solution of dNTP; about 5 μl of an appropriate PCR buffer; about 1 μl of each primer; about 5 μl of a H. kidney or H. brain cDNA library; and about 36 μl of water. The reaction is allowed to denature for about 30 seconds at 95 degrees Celsius, anneal for about 30 seconds at 55 degrees Celsius, and extend for about 5 minutes at 72 degrees Celsius, the sequence being repeated for a total of about 35 cycles. […] To extract the cDNA product from the agarose gel, the QIAEX II Gel Extraction protocol (QIAGEN, Inc.) is employed according to the manufacturer's instructions. Following extraction, the MR cDNA is cloned into an appropriate cloning vector (Zero Blunt TOPO PCR Cloning Kit (Invitrogen, Inc.) and a pAcHLT-baculovirus transfer vector (B.D./Pharminogen), then expressed in SF9 insect cells, essentially according to manufacturer's instructions. Sf9 cells are grown at a scale where gram quantity cell pellets are obtained for subsequent use in the MR binding assay. Harvested cell pellets are lysed by repeated freeze-thaw cycles (about 4) in a suitable lysis buffer then centrifuged at about 1×10^3 G (with the supernatant being saved for future assays).
MR binding assays are performed in a final total volume of about 250 μl containing about 20-25 μg of protein and 0.5 nM of [^3H]-aldosterone plus varying concentrations of test compound or vehicle. The assay binding buffer consists of 30 mM sodium molybdate, 30 mM of TRIS-HCl, 5 mM sodium phosphate, 5 mM sodium pyrophosphate, and about 10% glycerol, pH=7.5.
Incubations are carried out at 4 degrees Celsius with shaking for about 16 hours. 200 μl aliquots of each incubation are filtered onto Millipore HA 0.45 micron 96-well filter plates, pre-moistened with cold 30 mM TRIS-HCl. The filter plates are suctioned dry with vacuum and immediately washed 3× with cold 30 mM TRIS-HCl. The plates are then punched out and the amount of receptor-ligand complex is determined by liquid scintillation counting using 4 ml of Ready Protein Plus™ liquid scintillation cocktail.

SMILES | Ki (glucocorticoid receptor) [nM] | Ki (human MR) [nM]
COc1ccc(C(C)(c2c[nH]c3c(C)cccc23)C2CC2)cc1 (centres unmarked) [Example 24, 3-[1-Cyclopropyl-1-(4-methoxy-phenyl)-ethyl]-7-methyl-1H-indole] | < 500 | < 500
CCc1cccc2c(C(C)(c3ccccc3)c3ccc(OC)cc3)c[nH]c12 (centres unmarked) [Example 25] | < 500 | < 500
CCCC(C)(c1ccc(F)cc1)c1c[nH]c2c(C)cccc12 (centres unmarked) [Example 26, 3-[1-(4-Fluoro-phenyl)-1-methyl-butyl]-7-methyl-1H-indole] | < 500 | < 500
CCc1cccc2c(C(C)(c3ccc(O)cc3)c3ccc(F)cc3)c[nH]c12 (centres unmarked) [Example 27, 4-[1-(7-Ethyl-1H-indole-3-yl)-1-(4-fluoro-phenyl)-ethyl]-phenol] | < 1000 | < 500
COc1ccc(C(C)(c2ccccc2)c2c[nH]c3c(C)cccc23)cc1 (centres unmarked) [Example 28, 3-[1-(4-Methoxy-phenyl)-1-phenyl-ethyl]-7-methyl-1H-indole] | < 1000 | < 500
CCC(CC)(c1cc2cc(OC)ccc2o1)c1c[nH]c2c(NS(C)(=O)=O)cccc12 [Example 29, N-{3-[1-Ethyl-1-(5-methoxy-benzofuran-2-yl)-propyl]-1H-indol-7-yl}-methanesulfonamide] | < 1000 | < 500
CCC(CC)(c1ccco1)c1c[nH]c2c(NS(C)(=O)=O)cccc12 [Example 30, N-[3-(1-Ethyl-1-furan-2-yl-propyl)-1H-indol-7-yl]-methanesulfonamide] | < 500 | < 500
CCC(C)(c1ccc(OC)cc1)c1c[nH]c2c(C)cccc12 (centres unmarked) [Example 31, 3-[1-(4-Methoxy-phenyl)-1-methyl-propyl]-7-methyl-1H-indole] | < 500 | < 500
Cc1cccc2c(C3(c4ccc(F)cc4)CCCCC3)c[nH]c12 [Example 32, 3-[1-(4-Fluoro-phenyl)-cyclohexyl]-7-methyl-1H-indole] | < 10000 | < 500
CS(=O)(=O)Nc1cccc2c(C3(c4ccccc4)CCOCC3)c[nH]c12 [Example 33, N-[3-(4-Phenyl-tetrahydro-pyran-4-yl)-1H-indol-7-yl]-methanesulfonamide] | < 500 | < 500
CCCC(C)(c1ccc(OC(F)(F)F)cc1)c1c[nH]c2c(N)cccc12 (centres unmarked) [Example 35] | < 10000 | < 500
CC(C)(c1cccc(-c2ccc(F)cc2)c1)c1c[nH]c2c(NS(C)(=O)=O)cccc12 [Example 36, N-{3-[1-(4′-Fluoro-biphenyl-3-yl)-1-methyl-ethyl]-1H-indol-7-yl}-methanesulfonamide] | < 10000 | < 500
CCCC(C)(c1ccccc1)c1c[nH]c2c(C)cccc12 (centres unmarked) [Example 37, 7-Methyl-3-(1-methyl-1-phenyl-butyl)-1H-indole] | < 500 | < 500
CCCC(C)(c1cccc(OC)c1)c1c[nH]c2c(N)cccc12 (centres unmarked) [Example 38, 3-[1-(3-Methoxy-phenyl)-1-methyl-butyl]-1H-indol-7-ylamine] | < 1000 | < 500
CC(C)(c1ccc(-c2ccccc2)cc1)c1c[nH]c2c(NS(C)(=O)=O)cccc12 [Example 39, N-[3-(1-Biphenyl-4-yl-1-methyl-ethyl)-1H-indol-7-yl]-methanesulfonamide] | < 1000 | < 500
Cc1cccc2c(C(C)(c3ccc(F)cc3)C3CC3)c[nH]c12 (centres unmarked) [Example 40, 3-[1-Cyclopropyl-1-(4-fluoro-phenyl)-ethyl]-7-methyl-1H-indole] | < 500 | < 500
Cc1ccc(C(C)(C)c2c[nH]c3c(N)cccc23)cc1 [Example 41, 3-(1-Methyl-1-p-tolyl-ethyl)-1H-indol-7-ylamine] | < 10000 | < 1000
CC(c1ccccc1)(c1ccccc1)c1cn(CC(=O)O)c2ccccc12 [Example 42, [3-(1,1-Diphenyl-ethyl)-indol-1-yl]-acetic acid] | < 10000 | < 10000
CCCC(C)(c1ccc(OC(F)(F)F)cc1)c1c[nH]c2c(NS(C)(=O)=O)cccc12 (centres unmarked) [Example 43] | < 1000 | < 500
